Here are results for four molecules from PubChem BioAssay (NCI).

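Exposure lasted 48 hours, with cells grown in 96-well plates and compounds tested at five concentrations. TGI: total growth inhibition.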 A value given as a limit tells only on which side of the number the result lay.

In one assay the test system is KM20L2 colon. The assay is described as follows: NCI anticancer screen, dose series, 48 h.
`CCCN1CN(C(C(=O)N[C@@H]2C(=O)N3C2SC(C)(C)C3C(=O)O)c2ccc(O)cc2)CSC1=S` (stereo partly drawn) showed a TGI of over 100 µM.
In turn, `O=P1(c2ccccc2)CCCCC1` registered a TGI of over 100 µM.

The next assay deals with NCI-H522 lung. The assay is described as follows: NCI anticancer screen, dose series, 48 h.
`O=[N+]([O-])c1ccc(N2N=C(c3ccc(NCc4nc5ccccc5[nH]4)cc3)CC2c2ccco2)cc1` (stereo not drawn): the TGI was found to be 54 µM.
Molecule `CC(=O)O/C(=C1\C[C@H]2[C@@H]3CC=C4C[C@@H](OC(C)=O)CC[C@]4(C)[C@H]3CC[C@]2(C)C1=O)C(F)(F)F` had a TGI of 8.99 µM.
`CCCN1CN(C(C(=O)N[C@@H]2C(=O)N3C2SC(C)(C)C3C(=O)O)c2ccc(O)cc2)CSC1=S` (stereo partly drawn) yielded a TGI of 83.6 µM.

The next assay has as its system SW-620 colon. The assay is described as follows: NCI anticancer screen, dose series, 48 h.
`O=[N+]([O-])c1ccc(N2N=C(c3ccc(NCc4nc5ccccc5[nH]4)cc3)CC2c2ccco2)cc1` (stereo not drawn): the TGI is over 100 µM.
The molecule `CC(=O)O/C(=C1\C[C@H]2[C@@H]3CC=C4C[C@@H](OC(C)=O)CC[C@]4(C)[C@H]3CC[C@]2(C)C1=O)C(F)(F)F` returned a TGI of 19.8 µM.

A further assay relates to EKVX NSCLC. The assay is described as follows: NCI anticancer screen, dose series, 48 h.
`CC(=O)O/C(=C1\C[C@H]2[C@@H]3CC=C4C[C@@H](OC(C)=O)CC[C@]4(C)[C@H]3CC[C@]2(C)C1=O)C(F)(F)F` came in with a TGI of 37.9 µM.
The same measure, in the same setting: then `CCCN1CN(C(C(=O)N[C@@H]2C(=O)N3C2SC(C)(C)C3C(=O)O)c2ccc(O)cc2)CSC1=S` (stereo partly drawn), with over 100 µM.
The molecule `O=P1(c2ccccc2)CCCCC1` returned a TGI of over 100 µM.

A further assay relates to NCI-H226 lung. The assay is described as follows: NCI anticancer screen, dose series, 48 h.
For the molecule `CC(=O)O/C(=C1\C[C@H]2[C@@H]3CC=C4C[C@@H](OC(C)=O)CC[C@]4(C)[C@H]3CC[C@]2(C)C1=O)C(F)(F)F`, the TGI is 40.7 µM.
`O=P1(c2ccccc2)CCCCC1` gave a TGI of over 100 µM.

The test system of the next assay is HS 578T breast. The assay is described as follows: NCI anticancer screen, dose series, 48 h.
Regarding `CC(=O)O/C(=C1\C[C@H]2[C@@H]3CC=C4C[C@@H](OC(C)=O)CC[C@]4(C)[C@H]3CC[C@]2(C)C1=O)C(F)(F)F`, the TGI came out at 20.8 µM.

A further assay has as its system MCF7 breast. The assay is described as follows: NCI anticancer screen, dose series, 48 h.
Molecule `CC(=O)O/C(=C1\C[C@H]2[C@@H]3CC=C4C[C@@H](OC(C)=O)CC[C@]4(C)[C@H]3CC[C@]2(C)C1=O)C(F)(F)F` displayed a TGI of 17.8 µM.

For a further assay, the system named is RXF 393 renal. The assay is described as follows: NCI anticancer screen, dose series, 48 h.
`O=[N+]([O-])c1ccc(N2N=C(c3ccc(NCc4nc5ccccc5[nH]4)cc3)CC2c2ccco2)cc1` (stereo not drawn) showed a TGI of over 100 µM.
Turning to `CC(=O)O/C(=C1\C[C@H]2[C@@H]3CC=C4C[C@@H](OC(C)=O)CC[C@]4(C)[C@H]3CC[C@]2(C)C1=O)C(F)(F)F`, the TGI was determined as 15 µM.
`O=P1(c2ccccc2)CCCCC1` had a TGI of over 100 µM.

A further assay deals with A549 NSCLC. The assay is described as follows: NCI anticancer screen, dose series, 48 h.
`O=[N+]([O-])c1ccc(N2N=C(c3ccc(NCc4nc5ccccc5[nH]4)cc3)CC2c2ccco2)cc1` (stereo not drawn): the TGI is over 100 µM.
Regarding `CC(=O)O/C(=C1\C[C@H]2[C@@H]3CC=C4C[C@@H](OC(C)=O)CC[C@]4(C)[C@H]3CC[C@]2(C)C1=O)C(F)(F)F`, the TGI worked out at 36.8 µM.
Consider `O=P1(c2ccccc2)CCCCC1`, for which the TGI is over 100 µM.

The next assay has as its system SF-295 CNS. The assay is described as follows: NCI anticancer screen, dose series, 48 h.
In the case of `O=[N+]([O-])c1ccc(N2N=C(c3ccc(NCc4nc5ccccc5[nH]4)cc3)CC2c2ccco2)cc1` (stereo not drawn), the TGI was determined as 74.7 µM.
`CC(=O)O/C(=C1\C[C@H]2[C@@H]3CC=C4C[C@@H](OC(C)=O)CC[C@]4(C)[C@H]3CC[C@]2(C)C1=O)C(F)(F)F` displayed a TGI of 35.9 µM.
`CCCN1CN(C(C(=O)N[C@@H]2C(=O)N3C2SC(C)(C)C3C(=O)O)c2ccc(O)cc2)CSC1=S` (stereo partly drawn) had a TGI of over 100 µM.
In the case of `O=P1(c2ccccc2)CCCCC1`, the TGI is over 100 µM.

In another assay the test system is HCC-2998 colon. The assay is described as follows: NCI anticancer screen, dose series, 48 h.
With `O=[N+]([O-])c1ccc(N2N=C(c3ccc(NCc4nc5ccccc5[nH]4)cc3)CC2c2ccco2)cc1` (stereo not drawn), the TGI was determined as 94.1 µM.
The molecule `CC(=O)O/C(=C1\C[C@H]2[C@@H]3CC=C4C[C@@H](OC(C)=O)CC[C@]4(C)[C@H]3CC[C@]2(C)C1=O)C(F)(F)F` registered a TGI of 19 µM.
In the case of `O=P1(c2ccccc2)CCCCC1`, the TGI was over 100 µM.

A further assay concerns MOLT-4 leukemia. The assay is described as follows: NCI anticancer screen, dose series, 48 h.
`O=[N+]([O-])c1ccc(N2N=C(c3ccc(NCc4nc5ccccc5[nH]4)cc3)CC2c2ccco2)cc1` (stereo not drawn) displayed a TGI of 31.3 µM.
As to `CC(=O)O/C(=C1\C[C@H]2[C@@H]3CC=C4C[C@@H](OC(C)=O)CC[C@]4(C)[C@H]3CC[C@]2(C)C1=O)C(F)(F)F`, the TGI is 7.37 µM.
On the same count and under the same terms, next, `CCCN1CN(C(C(=O)N[C@@H]2C(=O)N3C2SC(C)(C)C3C(=O)O)c2ccc(O)cc2)CSC1=S` (stereo partly drawn): over 100 µM; `O=P1(c2ccccc2)CCCCC1`: over 100 µM.

In another assay the test system is MALME-3M melanoma. The assay is described as follows: NCI anticancer screen, dose series, 48 h.
Molecule `O=[N+]([O-])c1ccc(N2N=C(c3ccc(NCc4nc5ccccc5[nH]4)cc3)CC2c2ccco2)cc1` (stereo not drawn) came in with a TGI of 66.4 µM.
The same measure, in the same setting: next, `CC(=O)O/C(=C1\C[C@H]2[C@@H]3CC=C4C[C@@H](OC(C)=O)CC[C@]4(C)[C@H]3CC[C@]2(C)C1=O)C(F)(F)F`: 9.53 µM.
Molecule `CCCN1CN(C(C(=O)N[C@@H]2C(=O)N3C2SC(C)(C)C3C(=O)O)c2ccc(O)cc2)CSC1=S` (stereo partly drawn) yielded a TGI of over 100 µM.
As to `O=P1(c2ccccc2)CCCCC1`, the TGI is over 100 µM.

In the next assay the test system is IGROV1 ovarian. The assay is described as follows: NCI anticancer screen, dose series, 48 h.
`O=[N+]([O-])c1ccc(N2N=C(c3ccc(NCc4nc5ccccc5[nH]4)cc3)CC2c2ccco2)cc1` (stereo not drawn): the TGI was over 100 µM.
`CC(=O)O/C(=C1\C[C@H]2[C@@H]3CC=C4C[C@@H](OC(C)=O)CC[C@]4(C)[C@H]3CC[C@]2(C)C1=O)C(F)(F)F` registered a TGI of 19.8 µM.
On the same count and under the same terms, then `CCCN1CN(C(C(=O)N[C@@H]2C(=O)N3C2SC(C)(C)C3C(=O)O)c2ccc(O)cc2)CSC1=S` (stereo partly drawn), with over 100 µM; and `O=P1(c2ccccc2)CCCCC1`, with over 100 µM.

The next assay relates to CCRF-CEM leukemia. The assay is described as follows: NCI anticancer screen, dose series, 48 h.
In turn, `O=[N+]([O-])c1ccc(N2N=C(c3ccc(NCc4nc5ccccc5[nH]4)cc3)CC2c2ccco2)cc1` (stereo not drawn) showed a TGI of over 100 µM.
Same read-out and setting: next, `CC(=O)O/C(=C1\C[C@H]2[C@@H]3CC=C4C[C@@H](OC(C)=O)CC[C@]4(C)[C@H]3CC[C@]2(C)C1=O)C(F)(F)F`: 13.9 µM; `CCCN1CN(C(C(=O)N[C@@H]2C(=O)N3C2SC(C)(C)C3C(=O)O)c2ccc(O)cc2)CSC1=S` (stereo partly drawn): over 100 µM.
For the molecule `O=P1(c2ccccc2)CCCCC1`, the TGI was over 100 µM.

A further assay concerns UACC-62 melanoma. The assay is described as follows: NCI anticancer screen, dose series, 48 h.
For the molecule `O=[N+]([O-])c1ccc(N2N=C(c3ccc(NCc4nc5ccccc5[nH]4)cc3)CC2c2ccco2)cc1` (stereo not drawn), the TGI is 69.3 µM.
Same read-out and setting: then `CC(=O)O/C(=C1\C[C@H]2[C@@H]3CC=C4C[C@@H](OC(C)=O)CC[C@]4(C)[C@H]3CC[C@]2(C)C1=O)C(F)(F)F`, with 20.2 µM.
Still for that read-out and setting: next, `CCCN1CN(C(C(=O)N[C@@H]2C(=O)N3C2SC(C)(C)C3C(=O)O)c2ccc(O)cc2)CSC1=S` (stereo partly drawn): over 100 µM.
In the case of `O=P1(c2ccccc2)CCCCC1`, the TGI is over 100 µM.

For another assay, the system named is HOP-92 NSCLC. The assay is described as follows: NCI anticancer screen, dose series, 48 h.
Turning to `O=[N+]([O-])c1ccc(N2N=C(c3ccc(NCc4nc5ccccc5[nH]4)cc3)CC2c2ccco2)cc1` (stereo not drawn), the TGI was over 100 µM.
On the same count and under the same terms, next, `CC(=O)O/C(=C1\C[C@H]2[C@@H]3CC=C4C[C@@H](OC(C)=O)CC[C@]4(C)[C@H]3CC[C@]2(C)C1=O)C(F)(F)F`: 17.7 µM; `CCCN1CN(C(C(=O)N[C@@H]2C(=O)N3C2SC(C)(C)C3C(=O)O)c2ccc(O)cc2)CSC1=S` (stereo partly drawn): over 100 µM.

A further assay relates to NCI-H460 lung. The assay is described as follows: NCI anticancer screen, dose series, 48 h.
Regarding `O=[N+]([O-])c1ccc(N2N=C(c3ccc(NCc4nc5ccccc5[nH]4)cc3)CC2c2ccco2)cc1` (stereo not drawn), the TGI is over 100 µM.
`CC(=O)O/C(=C1\C[C@H]2[C@@H]3CC=C4C[C@@H](OC(C)=O)CC[C@]4(C)[C@H]3CC[C@]2(C)C1=O)C(F)(F)F` showed a TGI of 18.3 µM.
On the same count and under the same terms, then `CCCN1CN(C(C(=O)N[C@@H]2C(=O)N3C2SC(C)(C)C3C(=O)O)c2ccc(O)cc2)CSC1=S` (stereo partly drawn), with over 100 µM.
